Consider one compound from US6964783B1, “Non-solid composition for local application” (Naturveda, priority 1999, dated 2005).

The assay concerns 0.4×0.4 cm wound. The assay can be described thus: Wound healing in shaved rats after local application. Format: in vivo. Particulars: 0.2 ml applied on wound. As for the experimental part:
30 rats (IFFA-CREDO SPF weighing 200+/−20 g) were shaved (3×3 cm) on the right side of the back. A 0.4×0.4 cm wound was produced at the centre of the shaved area. 30 minutes after producing the small wound, the coagulated blood was removed and 0.2 ml of glycerine containing 3% Alchemilla vulgaris (preparation according to example 4) or 0.2 ml of pure glycerine (controls) were applied on ten animals. The ten other control rats received 0.2 ml of distilled water. The complete healing time and the healing index were determined each day for 10 days. The healing time was reduced by 48% with the treatment based on glycerine containing 3% Alchemilla vulgaris, with a healing index of 2.1 in the treated lot, compared to an index of 3.3 obtained with the control lot.
With glycerine alone, the healing time was reduced by 26% with a healing index of 2.7.

In turn, `OCC(O)CO` [glycerine alone, glycerine] returned a healing index (determined each day for 10 days, control lot 3.3) of 2.7. Also, the “healing time reduced by” value (followed each day for 10 days, versus control lot) amounted to 26%.
